Columns and labels:
Assay in all cases: relative viability (nuclei count vs DMSO), 5 days (fraction); higher = more cells survive
Veliparib + OSI-027 = compound: C[C@]1(c2nc3c(C(N)=O)cccc3[nH]2)CCCN1 [Veliparib] + COc1cccc2cc(-c3nc([C@H]4CC[C@H](C(=O)O)CC4)n4ncnc(N)c34)[nH]c12 [OSI-027] (partner 0.5 µM)
Summary of the method: (§1)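 A single step with final 0.05% Triton X-100, 1% formaldehyde and 1 ug/ml Hoechst fixed the cells and stained nuclei 5 days after treatment. Lung cancer cell lines in 1536-well plates had been treated by pin tool the day after seeding with one drug alone or a fixed anchor-drug dose plus five library-drug doses (not always all listed) in √10 steps, and nuclei were counted on 4× images. Relative viability is the ratio of nuclei in treated wells to nuclei in vehicle wells, taken as the median of duplicate plates.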

Veliparib + Navitoclax = compound: C[C@]1(c2nc3c(C(N)=O)cccc3[nH]2)CCCN1 [Veliparib] + CC1(C)CCC(c2ccc(Cl)cc2)=C(CN2CCN(c3ccc(C(=O)NS(=O)(=O)c4ccc(N[C@H](CCN5CCOCC5)CSc5ccccc5)c(S(=O)(=O)C(F)(F)F)c4)cc3)CC2)C1 [Navitoclax] (partner 0.5 µM)
Summary of the method: as §1

Veliparib + Pictilisib = compound: C[C@]1(c2nc3c(C(N)=O)cccc3[nH]2)CCCN1 [Veliparib] + CS(=O)(=O)N1CCN(Cc2cc3nc(-c4cccc5[nH]ncc45)nc(N4CCOCC4)c3s2)CC1 [Pictilisib] (partner 1 µM)
Summary of the method: as §1

[1] = compound: COC1=CC=C(C=C1)CN2C=CC3=C2C=C(C=C3)C(=O)NO + COc1cccc2cc(-c3nc([C@H]4CC[C@H](C(=O)O)CC4)n4ncnc(N)c34)[nH]c12 [OSI-027] (partner 0.5 µM)
Summary of the method: as §1

Q: What does the source list for SW 1573?
A: relative viability (Veliparib + OSI-027; first compound 0.06325 µM): 0.558; relative viability (Veliparib + OSI-027; first compound 0.2 µM): 0.597; relative viability (Veliparib + OSI-027; first compound 0.6325 µM): 0.521; relative viability (Veliparib + OSI-027; first compound 2 µM): 0.675; relative viability (Veliparib + Navitoclax; first compound 0.02 µM): 1.02; relative viability (Veliparib + Navitoclax; first compound 0.06325 µM): 0.934; relative viability (Veliparib + Navitoclax; first compound 0.2 µM): 1.1; relative viability (Veliparib + Navitoclax; first compound 0.6325 µM): 0.736; relative viability (Veliparib + Navitoclax; first compound 2 µM): 0.93; relative viability (Veliparib + Pictilisib; first compound 0.02 µM): 0.459; relative viability (Veliparib + Pictilisib; first compound 0.06325 µM): 0.587; relative viability (Veliparib + Pictilisib; first compound 0.2 µM): 0.476; relative viability (Veliparib + Pictilisib; first compound 0.6325 µM): 0.497; relative viability (Veliparib + Pictilisib; first compound 2 µM): 0.418; relative viability ([1]; first compound 0.253 µM): 0.616; relative viability ([1]; first compound 0.8 µM): 0.785; relative viability ([1]; first compound 2.53 µM): 0.519; relative viability ([1]; first compound 8 µM): 0.396

— the supplement of paper PMC10307832
